Assay results taken from patent US11840528B2 (Hoffmann-La Roche Inc., priority 2018, dated 2023).

How the values were obtained:
h-GABA-A α5β3γ2 [1] = target: T1, h-GABA-A α5β3γ2 (Homo sapiens, UniProt P18507+P31644); assay: [3H]flumazenil competition binding assay, membranes of HEK293 cells expressing GABAA receptors; conditions: displacement of [3H]-Flumazenil 0.5 nM, HEK293 cells expressing human receptors, mean of two determinations; Table 1
Outline: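 Receptor source: human α5β3γ2 transiently transfected into HEK293 cells, membranes in pH 7.5 Krebs-tris. Filtration through GF/C, then scintillation counting.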

h-GABA-A α5β3γ2 [2] = target: T1, h-GABA-A α5β3γ2; assay: Two-electrode voltage clamp electrophysiology in Xenopus laevis oocytes expressing GABAA receptors, modulation of GABA EC20 current; assay type: cell-based; parameters: host or cells: Xenopus laevis oocytes micro-injected with RNA transcripts of the subunits; conditions: Table 1; for Efficacy (GABA) %: % modulation of GABA EC20 = 100*(Fold increase-1); for Fold increase h-GABA-A α5β3γ2 oocyte: test compound at approx. 30 fold its Ki, GABA at EC20
Outline: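 Modulation is reported as % of the GABA EC20 current, calculated as 100*(Fold increase−1) from the peak ratio between a second GABA response carrying compound (applied at roughly 30-fold Ki) and a preceding control response. Oocytes expressing human α5β3γ2 were clamped at −80 mV at room temperature, 3–5 days after injection.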

Row | SMILES | Ki (h-GABA-A α5β3γ2 [1]) [µM] | Efficacy (GABA) % (h-GABA-A α5β3γ2 [2]) [%] | Fold increase h-GABA-A α5β3γ2 oocyte (h-GABA-A α5β3γ2 [2])
1 | CCOc1ncc(-c2cnn(Cc3c(-c4ccc(C)nc4)noc3C)c(=O)c2)cc1C [Example 180, 5-(6-ethoxy-5-methylpyridin-3-yl)-2-((5-methyl-3-(6-methylpyridin-3-yl)isoxazol-4-yl)methyl)pyridazin-3(2H)-one] | 0.039 | 196 | 2.96
2 | Cc1ccc(-c2noc(C)c2Cn2ncc(N3CC(F)C3)cc2=O)cn1 [Example 181, 5-(3-fluoroazetidin-1-yl)-2-[[5-methyl-3-(6-methyl-3-pyridyl)isoxazol-4-yl]methyl]pyridazin-3-one] | 0.0157 | 134 | 2.34
3 | Cc1ccc(-c2noc(C(F)F)c2Cn2ncc(N3C[C@@H](C)O[C@@H](C)C3)cc2=O)cn1 [Example 182, 2-((5-(Difluoromethyl)-3-(6-methylpyridin-3-yl)isoxazol-4-yl)methyl)-5-((2S,6R)-2,6-dimethylmorpholino)pyridazin-3(2H)-one] | 0.0189 | 209 | 3.09
4 | COc1ncc(-c2cnn(Cc3c(-c4ccc(C)nc4)noc3C)c(=O)c2)cc1F [Example 183, 5-(5-fluoro-6-methoxypyridin-3-yl)-2-((5-methyl-3-(6-methylpyridin-3-yl)isoxazol-4-yl)methyl)pyridazin-3(2H)-one] | 0.0287 | 137 | 2.37
5 | Cc1ccc(-c2noc(C)c2Cn2ncc(N3CCN(C(C)C)[C@@H](C)C3)cc2=O)cn1 [Example 184, 5-[(3S)-4-isopropyl-3-methyl-piperazin-1-yl]-2-[[5-methyl-3-(6-methyl-3-pyridyl)isoxazol-4-yl]methyl]pyridazin-3-one] | 0.0288 | 125 | 2.25
6 | Cc1ccc(-c2noc(C)c2Cn2ncc(N3CC(OCC4CC4)C3)cc2=O)nn1 [Example 185, 5-[3-(cyclopropylmethoxy)azetidin-1-yl]-2-[[5-methyl-3-(6-methylpyridazin-3-yl)isoxazol-4-yl]methyl]pyridazin-3-one] | 0.0042 | 126 | 2.26
7 | Cc1ccc(-c2noc(C)c2Cn2ncc(N3CC(Oc4ccc(C)nn4)C3)cc2=O)cn1 [Example 186, 2-[[5-methyl-3-(6-methyl-3-pyridyl)isoxazol-4-yl]methyl]-5-[3-(6-methylpyridazin-3-yl)oxyazetidin-1-yl]pyridazin-3-one] | 0.0374 | 160 | 2.6
8 | COc1ncc(-c2cnn(Cc3c(-c4ccc(C)nc4)noc3C)c(=O)c2)cc1Cl [Example 188, 5-(5-chloro-6-methoxypyridin-3-yl)-2-((5-methyl-3-(6-methylpyridin-3-yl)isoxazol-4-yl)methyl)pyridazin-3(2H)-one] | 0.0086 | 210 | 3.1
9 | Cc1ccc(-c2noc(C)c2Cn2ncc(-c3cc(F)cnc3Cl)cc2=O)cn1 [Example 189, 5-(2-chloro-5-fluoro-3-pyridyl)-2-((5-methyl-3-(6-methyl-3-pyridyl)isoxazol-4-yl)methyl)pyridazin-3-one] | 0.0282 | 180 | 2.8
10 | Cc1ccc(-c2noc(C)c2Cn2ncc(-c3ccc(OC(C)C)nc3)cc2=O)cn1 [Example 190, 5-(6-isopropoxy-3-pyridyl)-2-((5-methyl-3-(6-methyl-3-pyridyl)isoxazol-4-yl)methyl)pyridazin-3-one] | 0.0252 | 146 | 2.46
11 | COc1cc(-c2cnn(Cc3c(-c4ccc(C)nc4)noc3C)c(=O)c2)c(F)cn1 [Example 191, 5-(5-fluoro-2-methoxypyridin-4-yl)-2-((5-methyl-3-(6-methylpyridin-3-yl)isoxazol-4-yl)methyl)pyridazin-3(2H)-one] | 0.0059 | 126 | 2.26
12 | Cc1ccc(-c2noc(C)c2Cn2ncc(-c3cc(C)nc(C)c3)cc2=O)cn1 [Example 192, 5-(2,6-dimethylpyridin-4-yl)-2-((5-methyl-3-(6-methylpyridin-3-yl)isoxazol-4-yl)methyl)pyridazin-3(2H)-one] | 0.0064 | 221 | 3.21
13 | Cc1ccc(-c2noc(C)c2Cn2ncc(N3CC4(C3)CC(F)(F)CO4)cc2=O)cn1 [Example 193, 5-(7,7-difluoro-5-oxa-2-azaspiro[3.4]octan-2-yl)-2-[[5-methyl-3-(6-methyl-3-pyridyl)isoxazol-4-yl]methyl]pyridazin-3-one] | 0.0072 | 95 | 1.95
14 | CO[C@@H]1CN(c2cnn(Cc3c(-c4ccc(C)nc4)noc3C)c(=O)c2)[C@@H]1C [Example 194, 5-[(2R,3R)-3-methoxy-2-methyl-azetidin-1-yl]-2-[[5-methyl-3-(6-methyl-3-pyridyl)isoxazol-4-yl]methyl]pyridazin-3-one] | 0.0108 | 152 | 2.52
15 | Cc1ccc(-c2noc(C)c2Cn2ncc(N3CC4(CCCCC4)C3)cc2=O)cn1 [Example 195] | 0.0172 | 118 | 2.18
16 | CCc1cc(-c2cnn(Cc3c(-c4ccc(C)nc4)noc3C)c(=O)c2)ccn1 [Example 196, 5-(2-ethyl-4-pyridyl)-2-((5-methyl-3-(6-methyl-3-pyridyl)isoxazol-4-yl)methyl)pyridazin-3-one] | 0.0037 | 98 | 1.98
17 | CO[C@H]1CN(c2cnn(Cc3c(-c4ccc(C)nc4)noc3C)c(=O)c2)[C@H]1C [Example 197, 5-[(2S,3S)-3-methoxy-2-methyl-azetidin-1-yl]-2-[[5-methyl-3-(6-methyl-3-pyridyl)isoxazol-4-yl]methyl]pyridazin-3-one] | 0.002 | 131 | 2.31
18 | CCO[C@H]1CN(c2cnn(Cc3c(-c4ccc(C)nc4)noc3C)c(=O)c2)[C@H]1C [Example 198, 5-[(2S,3S)-3-ethoxy-2-methyl-azetidin-1-yl]-2-[[5-methyl-3-(6-methyl-3-pyridyl)isoxazol-4-yl]methyl]pyridazin-3-one] | 0.0018 | 131 | 2.31
19 | Cc1ccc(-c2noc(C)c2Cn2ncc(N3CC4(CCOCC4)C3)cc2=O)cn1 [Example 199, 2-((5-methyl-3-(6-methylpyridin-3-yl)isoxazol-4-yl)methyl)-5-(7-oxa-2-azaspiro[3.5]nonan-2-yl)pyridazin-3(2H)-one] | 0.0194 | 117 | 2.17
20 | Cc1ccc(-c2noc(C)c2Cn2ncc(N3CC4(C[C@@H](F)CO4)C3)cc2=O)cn1 [Example 200, 5-[(7R)-7-fluoro-5-oxa-2-azaspiro[3.4]octan-2-yl]-2-[[5-methyl-3-(6-methyl-3-pyridyl)isoxazol-4-yl]methyl]pyridazin-3-one] | 0.0186 | 86 | 1.86
21 | Cc1ccc(-c2noc(C)c2Cn2ncc(N3CC4(C[C@H](F)CO4)C3)cc2=O)cn1 [Example 201, 5-[(7S)-7-fluoro-5-oxa-2-azaspiro[3.4]octan-2-yl]-2-[[5-methyl-3-(6-methyl-3-pyridyl)isoxazol-4-yl]methyl]pyridazin-3-one] | 0.0143 | 93 | 1.93
22 | CNc1cc(-c2cnn(Cc3c(-c4ccc(C)nc4)noc3C)c(=O)c2)ccn1 [Example 202, 2-((5-methyl-3-(6-methylpyridin-3-yl)isoxazol-4-yl)methyl)-5-(2-(methylamino)pyridin-4-yl)pyridazin-3(2H)-one] | 0.0042 | 96 | 1.96
23 | Cc1ccc(-c2noc(C)c2Cn2ncc(N3CC4(C[C@@H](OC(F)F)CO4)C3)cc2=O)cn1 [Example 203, 5-[(7R)-7-(difluoromethoxy)-5-oxa-2-azaspiro[3.4]octan-2-yl]-2-[[5-methyl-3-(6-methyl-3-pyridyl)isoxazol-4-yl]methyl]pyridazin-3-one] | 0.0178 | 121 | 2.21
24 | Cc1ccc(-c2noc(C)c2Cn2ncc(N3CC4(C[C@H](OC(F)F)CO4)C3)cc2=O)cn1 [Example 204, 5-[(7S)-7-(difluoromethoxy)-5-oxa-2-azaspiro[3.4]octan-2-yl]-2-[[5-methyl-3-(6-methyl-3-pyridyl)isoxazol-4-yl]methyl]pyridazin-3-one] | 0.0151 | 160 | 2.6
25 | Cc1ncc(-c2noc(C)c2Cn2ncc(N3C[C@@H](C)O[C@@H](C)C3)cc2=O)cc1F [Example 205, 5-((2R,6S)-2,6-dimethylmorpholino)-2-((3-(5-fluoro-6-methylpyridin-3-yl)-5-methylisoxazol-4-yl)methyl)pyridazin-3(2H)-one] | 0.002 | 253 | 3.53
